In US12516056B2, “Compounds for inhibition of janus kinase 1” (MANKIND PHARMA LTD., priority 2019, dated 2026):

Key:
Recombinant JAK2 = target: T1, Recombinant JAK2 (Homo sapiens, UniProt O60674); experiment: JAK biochemical assay (LANCE Ultra TR-FRET), JAK2; details: recombinant JAK2, TR-FRET; read-out: Biochemical Assay (μM) JAK2
T1 construct: purchased Carna Biosciences
How it was run: (§1)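 Kinase reactions ran in buffer of 50 mM HEPES pH 7.5 with 1 mM EGTA, 10 mM MgCl2, 2 mM DTT and 0.01% Tween-20, using recombinant enzyme. Phosphorylated ULight substrate was detected by TR-FRET, and compound effect expressed as % inhibition against vehicle.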

Recombinant JAK3 = target: T2, Recombinant JAK3 (Homo sapiens, UniProt P52333); experiment: JAK biochemical assay (LANCE Ultra TR-FRET), JAK3; details: recombinant JAK3, TR-FRET; read-out: Biochemical Assay (μM) JAK3
T2 construct: purchased Carna Biosciences
T2 sequence (P52333 1-1124): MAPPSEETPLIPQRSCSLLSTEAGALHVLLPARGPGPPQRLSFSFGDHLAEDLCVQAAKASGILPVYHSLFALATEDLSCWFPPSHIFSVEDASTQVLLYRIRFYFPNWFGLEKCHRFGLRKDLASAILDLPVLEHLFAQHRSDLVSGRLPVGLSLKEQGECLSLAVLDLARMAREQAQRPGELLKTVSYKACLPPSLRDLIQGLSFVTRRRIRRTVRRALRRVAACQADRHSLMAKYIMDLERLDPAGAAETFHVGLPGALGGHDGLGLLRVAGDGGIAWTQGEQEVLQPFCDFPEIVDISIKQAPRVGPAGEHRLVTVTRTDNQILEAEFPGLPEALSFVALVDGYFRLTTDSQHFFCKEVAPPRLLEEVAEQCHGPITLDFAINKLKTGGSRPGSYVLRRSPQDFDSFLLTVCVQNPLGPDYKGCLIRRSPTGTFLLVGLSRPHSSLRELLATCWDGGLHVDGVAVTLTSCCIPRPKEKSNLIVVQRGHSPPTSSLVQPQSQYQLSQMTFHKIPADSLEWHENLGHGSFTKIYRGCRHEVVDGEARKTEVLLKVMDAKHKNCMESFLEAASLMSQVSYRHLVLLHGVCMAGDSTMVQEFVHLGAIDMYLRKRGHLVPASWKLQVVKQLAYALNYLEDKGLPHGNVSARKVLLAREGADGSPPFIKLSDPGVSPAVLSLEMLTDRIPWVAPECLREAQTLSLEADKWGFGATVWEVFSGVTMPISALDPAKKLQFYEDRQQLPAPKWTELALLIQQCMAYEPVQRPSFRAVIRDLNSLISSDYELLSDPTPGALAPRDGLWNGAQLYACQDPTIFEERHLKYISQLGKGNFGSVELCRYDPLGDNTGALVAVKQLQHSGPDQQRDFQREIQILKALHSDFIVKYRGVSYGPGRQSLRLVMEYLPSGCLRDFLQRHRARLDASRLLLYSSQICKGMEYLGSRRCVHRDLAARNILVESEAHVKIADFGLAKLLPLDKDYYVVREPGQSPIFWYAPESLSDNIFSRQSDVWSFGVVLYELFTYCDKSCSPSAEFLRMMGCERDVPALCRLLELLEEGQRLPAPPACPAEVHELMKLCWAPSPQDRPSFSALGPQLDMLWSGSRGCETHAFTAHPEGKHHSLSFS
How it was run: as §1

Recombinant JAK1 = target: T3, Recombinant JAK1 (Homo sapiens, UniProt P23458); experiment: JAK biochemical assay (LANCE Ultra TR-FRET), JAK1; details: recombinant JAK1, TR-FRET; read-out: Biochemical Assay (μM) JAK1
T3 construct: purchased Carna Biosciences
T3 sequence (P23458 whole entry): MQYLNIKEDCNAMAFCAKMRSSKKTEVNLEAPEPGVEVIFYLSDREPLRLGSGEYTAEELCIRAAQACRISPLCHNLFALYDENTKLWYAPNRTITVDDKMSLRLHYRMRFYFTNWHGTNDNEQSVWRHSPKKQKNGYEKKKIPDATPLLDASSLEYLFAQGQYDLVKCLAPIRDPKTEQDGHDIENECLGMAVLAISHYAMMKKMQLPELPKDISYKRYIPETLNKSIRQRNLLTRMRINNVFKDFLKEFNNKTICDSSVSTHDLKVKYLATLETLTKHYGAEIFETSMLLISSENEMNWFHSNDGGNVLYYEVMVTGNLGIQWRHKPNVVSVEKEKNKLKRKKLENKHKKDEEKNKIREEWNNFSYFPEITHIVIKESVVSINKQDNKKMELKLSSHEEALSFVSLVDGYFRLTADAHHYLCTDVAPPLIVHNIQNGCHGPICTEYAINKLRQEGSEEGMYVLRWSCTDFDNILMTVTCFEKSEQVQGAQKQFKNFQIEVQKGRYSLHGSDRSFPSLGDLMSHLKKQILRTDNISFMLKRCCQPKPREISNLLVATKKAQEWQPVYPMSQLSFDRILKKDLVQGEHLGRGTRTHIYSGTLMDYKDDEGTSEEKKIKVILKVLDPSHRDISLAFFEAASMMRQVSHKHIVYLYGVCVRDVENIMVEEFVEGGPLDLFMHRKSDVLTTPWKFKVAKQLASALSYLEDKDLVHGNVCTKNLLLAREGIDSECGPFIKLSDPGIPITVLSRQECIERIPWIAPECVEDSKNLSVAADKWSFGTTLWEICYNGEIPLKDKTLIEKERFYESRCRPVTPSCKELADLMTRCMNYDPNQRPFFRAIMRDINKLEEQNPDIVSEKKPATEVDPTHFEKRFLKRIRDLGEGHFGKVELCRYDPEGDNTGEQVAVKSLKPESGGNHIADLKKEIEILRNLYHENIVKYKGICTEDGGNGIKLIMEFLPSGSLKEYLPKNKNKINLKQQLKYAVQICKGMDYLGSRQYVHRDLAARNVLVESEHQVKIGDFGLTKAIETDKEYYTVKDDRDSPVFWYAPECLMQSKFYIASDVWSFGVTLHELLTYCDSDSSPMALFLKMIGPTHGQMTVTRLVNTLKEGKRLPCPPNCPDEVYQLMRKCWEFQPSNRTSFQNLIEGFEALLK
How it was run: as §1

Recombinant TYK2 = target: T4, Recombinant TYK2 (Homo sapiens, UniProt P29597); experiment: JAK biochemical assay (LANCE Ultra TR-FRET), TYK2; details: recombinant TYK2, TR-FRET; read-out: Biochemical Assay (μM) TYK2
T4 construct: purchased Carna Biosciences
T4 sequence (P29597 whole entry): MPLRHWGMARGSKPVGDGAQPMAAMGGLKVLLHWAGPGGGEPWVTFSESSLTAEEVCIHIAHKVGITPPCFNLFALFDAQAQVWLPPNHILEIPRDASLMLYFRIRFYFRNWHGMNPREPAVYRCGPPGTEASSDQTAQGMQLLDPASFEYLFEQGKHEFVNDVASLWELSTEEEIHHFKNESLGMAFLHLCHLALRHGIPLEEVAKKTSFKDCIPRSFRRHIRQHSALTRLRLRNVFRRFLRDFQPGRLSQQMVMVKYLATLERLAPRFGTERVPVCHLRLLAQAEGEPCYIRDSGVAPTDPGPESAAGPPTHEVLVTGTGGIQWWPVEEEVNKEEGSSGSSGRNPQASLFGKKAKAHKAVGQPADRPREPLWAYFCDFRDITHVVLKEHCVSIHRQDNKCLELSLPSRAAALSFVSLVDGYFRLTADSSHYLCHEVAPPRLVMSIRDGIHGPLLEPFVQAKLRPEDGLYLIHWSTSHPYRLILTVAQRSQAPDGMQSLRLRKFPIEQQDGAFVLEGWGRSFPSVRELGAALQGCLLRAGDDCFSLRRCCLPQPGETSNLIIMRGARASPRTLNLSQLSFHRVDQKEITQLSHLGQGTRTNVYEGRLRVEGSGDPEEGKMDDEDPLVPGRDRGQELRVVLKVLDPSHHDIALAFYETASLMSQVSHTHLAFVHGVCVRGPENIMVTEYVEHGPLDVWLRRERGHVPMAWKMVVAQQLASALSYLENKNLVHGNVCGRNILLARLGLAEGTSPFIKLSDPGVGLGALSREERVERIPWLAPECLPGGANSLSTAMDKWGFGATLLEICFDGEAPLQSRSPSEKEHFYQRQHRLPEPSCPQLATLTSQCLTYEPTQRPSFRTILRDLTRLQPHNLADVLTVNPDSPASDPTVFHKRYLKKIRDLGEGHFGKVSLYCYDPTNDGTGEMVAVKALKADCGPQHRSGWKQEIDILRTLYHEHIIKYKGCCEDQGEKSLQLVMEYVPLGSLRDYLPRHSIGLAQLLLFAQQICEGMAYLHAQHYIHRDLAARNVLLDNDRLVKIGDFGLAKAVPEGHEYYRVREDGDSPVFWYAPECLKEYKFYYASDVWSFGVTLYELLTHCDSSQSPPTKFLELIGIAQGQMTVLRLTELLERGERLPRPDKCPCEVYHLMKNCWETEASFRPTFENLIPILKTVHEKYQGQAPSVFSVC
How it was run: as §1

T1 sequence (O60674 whole entry): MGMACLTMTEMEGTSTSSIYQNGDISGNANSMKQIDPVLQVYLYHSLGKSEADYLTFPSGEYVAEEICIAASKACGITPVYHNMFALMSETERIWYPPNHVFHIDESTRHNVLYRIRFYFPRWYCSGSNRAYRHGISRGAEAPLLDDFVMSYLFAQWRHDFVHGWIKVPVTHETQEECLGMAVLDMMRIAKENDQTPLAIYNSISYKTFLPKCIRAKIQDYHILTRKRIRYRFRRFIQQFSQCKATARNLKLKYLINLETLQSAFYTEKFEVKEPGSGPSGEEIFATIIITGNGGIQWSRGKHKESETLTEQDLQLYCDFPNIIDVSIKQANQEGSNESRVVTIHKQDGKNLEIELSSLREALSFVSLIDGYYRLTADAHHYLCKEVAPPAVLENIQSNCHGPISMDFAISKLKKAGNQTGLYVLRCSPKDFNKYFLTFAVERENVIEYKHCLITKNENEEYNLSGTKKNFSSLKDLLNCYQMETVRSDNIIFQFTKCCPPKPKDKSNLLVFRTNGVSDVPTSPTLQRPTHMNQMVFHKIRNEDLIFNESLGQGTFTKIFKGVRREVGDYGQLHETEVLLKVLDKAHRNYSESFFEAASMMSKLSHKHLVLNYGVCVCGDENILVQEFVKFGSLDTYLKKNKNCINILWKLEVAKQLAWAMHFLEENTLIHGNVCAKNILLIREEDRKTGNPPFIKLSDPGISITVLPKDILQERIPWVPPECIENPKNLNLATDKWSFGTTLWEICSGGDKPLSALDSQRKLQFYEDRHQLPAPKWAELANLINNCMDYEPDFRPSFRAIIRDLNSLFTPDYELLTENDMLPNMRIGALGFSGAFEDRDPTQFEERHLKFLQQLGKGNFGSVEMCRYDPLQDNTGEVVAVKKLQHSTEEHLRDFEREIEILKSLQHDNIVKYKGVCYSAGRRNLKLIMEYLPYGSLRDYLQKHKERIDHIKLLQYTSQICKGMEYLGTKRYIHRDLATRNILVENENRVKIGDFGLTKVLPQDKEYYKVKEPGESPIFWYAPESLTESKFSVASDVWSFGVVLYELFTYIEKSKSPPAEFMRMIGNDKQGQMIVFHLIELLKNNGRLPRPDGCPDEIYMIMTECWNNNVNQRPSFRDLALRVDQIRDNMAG

IC50 (Recombinant JAK2) [µM] | IC50 (Recombinant JAK3) [µM] | IC50 (Recombinant JAK1) [µM] | IC50 (Recombinant TYK2) [µM] | SMILES
> 1 | > 0.5 | > 1 | > 1 | CC(C)OC(c1ccc(-n2cc(-c3ccnc4[nH]cnc34)cn2)nc1)C(F)(F)F (stereo not drawn) [Example 1124, 7-(1-(5-(2,2,2-trifluoro-1-isopropoxyethyl)pyridin-2-yl)-1H-pyrazol-4-yl)-3H-imidazo[4,5-b]pyridine]
< 0.1 | < 0.1 | < 0.1 | > 1 | CS(=O)(=O)COC(c1ccc(-n2cc(-c3ccnc4[nH]cnc34)cn2)nc1)C(F)(F)F (stereo not drawn) [Example 1140, 7-(1-(5-(1-((methylsulfonyl)methoxy)-2,2,2-trifluoroethyl)pyridin-2-yl)-1H-pyrazol-4-yl)-3H-imidazo[4,5-b]pyridine]
> 1 | > 1 | > 0.5 | > 1 | CS(=O)(=O)CCC(c1ccc(-n2cc(-c3ccnc4[nH]c(=O)[nH]c34)cn2)nc1)C(F)(F)F (stereo not drawn) [Example 1147, 7-(1-(5-(1,1,1-trifluoro-4-(methylsulfonyl)butan-2-yl)pyridin-2-yl)-1H-pyrazol-4-yl)-1H-imidazo[4,5-b]pyridin-2(3H)-one]
> 0.5 | > 0.1 | > 0.1 | > 1 | COCCC(c1ccc(-n2cc(-c3ccnc4[nH]cnc34)cn2)nc1)C(F)(F)F (stereo not drawn) [Example 1155, 7-(1-(5-(1,1,1-trifluoro-4-methoxybutan-2-yl)pyridin-2-yl)-1H-pyrazol-4-yl)-3H-imidazo[4,5-b]pyridine]
> 0.1 | < 0.1 | < 0.1 | > 1 | OC(c1ccc(-n2cc(-c3ccnc4[nH]cnc34)cn2)nc1)C1CC1 (stereo not drawn) [Example 1159, (6-(4-(3H-imidazo[4,5-b]pyridin-7-yl)-1H-pyrazol-1-yl)pyridin-3-yl)(cyclopropyl)methanol]
> 0.5 | > 0.5 | > 0.1 | > 1 | CS(=O)(=O)CCC(c1ccc(-n2cc(-c3ccnc4[nH]cnc34)cn2)nc1)C1COC1 (stereo not drawn) [Example 1160, 7-(1-(5-(3-(methylsulfonyl)-1-(oxetan-3-yl)propyl)pyridin-2-yl)-1H-pyrazol-4-yl)-3H-imidazo[4,5-b]pyridine]
> 1 | > 0.5 | > 1 | > 1 | COC(CCS(C)(=O)=O)c1ccc(-n2cc(-c3ccnc4[nH]cnc34)cn2)nc1 (stereo not drawn) [Example 1161, 7-(1-(5-(1-methoxy-3-(methylsulfonyl)propyl)pyridin-2-yl)-1H-pyrazol-4-yl)-3H-imidazo[4,5-b]pyridine]
> 0.5 | > 0.5 | > 0.5 | > 1 | CS(=O)(=O)CCC(F)c1ccc(-n2cc(-c3ccnc4[nH]cnc34)cn2)nc1 (stereo not drawn) [Example 1162, 7-(1-(5-(1-fluoro-3-(methylsulfonyl)propyl)pyridin-2-yl)-1H-pyrazol-4-yl)-3H-imidazo[4,5-b]pyridine]
> 0.5 | > 0.5 | > 0.5 | > 1 | CC(CCS(C)(=O)=O)c1ccc(-n2cc(-c3ccnc4[nH]cnc34)cn2)nc1 (stereo not drawn) [Example 1163, 7-(1-(5-(4-(methylsulfonyl)butan-2-yl)pyridin-2-yl)-1H-pyrazol-4-yl)-3H-imidazo[4,5-b]pyridine]
> 1 | > 1 | > 1 | > 1 | CS(=O)(=O)N1CCC(C(O)c2ccc(-n3cc(-c4ccnc5[nH]cnc45)cn3)nc2)CC1 (stereo not drawn) [Example 1164, (6-(4-(3H-imidazo[4,5-b]pyridin-7-yl)-1H-pyrazol-1-yl)pyridin-3-yl)(1-(methylsulfonyl)piperidin-4-yl)methanol]
> 1 | > 1 | > 1 | > 1 | CN1CCC(C(O)c2ccc(-n3cc(-c4ccnc5[nH]cnc45)cn3)nc2)CC1 (stereo not drawn) [Example 1165, (6-(4-(3H-imidazo[4,5-b]pyridin-7-yl)-1H-pyrazol-1-yl)pyridin-3-yl)(1-methylpiperidin-4-yl)methanol]
> 1 | > 1 | > 1 | > 1 | CS(=O)(=O)CCC(c1cccc(-n2cc(-c3ccnc4[nH]cnc34)cn2)n1)C(F)(F)F (stereo not drawn) [Example 1175, 7-(1-(6-(1,1,1-trifluoro-4-(methylsulfonyl)butan-2-yl)pyridin-2-yl)-1H-pyrazol-4-yl)-3H-imidazo[4,5-b]pyridine]
> 1 | > 1 | > 1 | > 1 | CS(=O)(=O)CCC(c1ccnc(-n2cc(-c3ccnc4[nH]cnc34)cn2)c1)C(F)(F)F (stereo not drawn) [Example 1176, 7-(1-(4-(1,1,1-trifluoro-4-(methylsulfonyl)butan-2-yl)pyridin-2-yl)-1H-pyrazol-4-yl)-3H-imidazo[4,5-b]pyridine]
> 1 | > 1 | > 0.5 | > 1 | CS(=O)(=O)CCC(c1ccc(-n2cc(-c3ccnc4[nH]c(=O)[nH]c34)cn2)nc1)C(F)(F)F (stereo not drawn) [Example 1189, 7-(1-(5-(1,1,1-trifluoro-4-(methylsulfonyl)butan-2-yl)pyridin-2-yl)-1H-pyrazol-4-yl)-1H-imidazo[4,5-b]pyridin-2(3H)-one]
> 0.5 | > 0.1 | > 0.1 | > 1 | CC(C)(O)CC(c1ccc(-n2cc(-c3ccnc4[nH]cnc34)cn2)nc1)C(F)(F)F (stereo not drawn) [Example 1193, 4-(6-(4-(3H-imidazo[4,5-b]pyridin-7-yl)-1H-pyrazol-1-yl)pyridin-3-yl)-5,5,5-trifluoro-2-methylpentan-2-ol]
> 0.5 | > 0.5 | > 0.5 | > 1 | CS(=O)(=O)CC(Cc1ccc(-n2cc(-c3ccnc4[nH]cnc34)cn2)nc1)C(F)(F)F (stereo not drawn) [Example 1194, 7-(1-(5-(3,3,3-trifluoro-2-((methylsulfonyl)methyl)propyl)pyridin-2-yl)-1H-pyrazol-4-yl)-3H-imidazo[4,5-b]pyridine]
> 0.5 | > 0.1 | > 0.1 | > 1 | CC(C)(CO)C(c1ccc(-n2cc(-c3ccnc4[nH]cnc34)cn2)nc1)C(F)(F)F (stereo not drawn) [Example 1196, 3-(6-(4-(3H-imidazo[4,5-b]pyridin-7-yl)-1H-pyrazol-1-yl)pyridin-3-yl)-4,4,4-trifluoro-2,2-dimethylbutan-1-ol]
> 0.1 | < 0.1 | < 0.1 | > 0.5 | FC(F)(F)C(CCNC1CCCCC1)c1ccc(-n2cc(-c3ccnc4[nH]cnc34)cn2)nc1 (stereo not drawn) [Example 1199, N-(3-(6-(4-(3H-imidazo[4,5-b]pyridin-7-yl)-1H-pyrazol-1-yl)pyridin-3-yl)-4,4,4-trifluorobutyl)cyclohexanamine]
< 0.1 | < 0.1 | < 0.1 | > 1 | O=S(=O)(CCC(c1ccc(-n2cc(-c3ccnc4[nH]cnc34)cn2)nc1)C(F)(F)F)CC1CC1 (stereo not drawn) [Example 1204, 7-(1-(5-(4-(cyclopropylmethylsulfonyl)-1,1,1-trifluorobutan-2-yl)pyridin-2-yl)-1H-pyrazol-4-yl)-3H-imidazo[4,5-b]pyridine]
> 0.1 | > 0.1 | < 0.1 | > 1 | O=S(=O)(CC1CC1)CC(c1ccc(-n2cc(-c3ccnc4[nH]cnc34)cn2)nc1)C(F)(F)F (stereo not drawn) [Example 1205, 7-(1-(5-(3-(cyclopropylmethylsulfonyl)-1,1,1-trifluoropropan-2-yl)pyridin-2-yl)-1H-pyrazol-4-yl)-3H-imidazo[4,5-b]pyridine]
> 0.1 | > 0.5 | > 0.1 | > 1 | FC(F)(F)C(CN1CCOCC1)c1ccc(-n2cc(-c3ccnc4[nH]cnc34)cn2)nc1 (stereo not drawn) [Example 1206, 7-(1-(5-(1,1,1-trifluoro-3-morpholinopropan-2-yl)pyridin-2-yl)-1H-pyrazol-4-yl)-3H-imidazo[4,5-b]pyridine]
